The values below come from patent US20230100838A1 (Revolution Medicines, Inc., priority 2019, published 2023).

Assay type in all cases: binding
In assay [1] the target is T1, GDP-loaded K-Ras (1-169) G12D, C51S, C80L, C118S (Homo sapiens, UniProt P01116, C118S/C51S/C80L/G12D).
T1 construct: GDP-loaded K-Ras (1-169) G12D, C51S, C80L, C118S
The assay is described as follows: K-Ras G12D(GDP) cross-linking assay (conjugate formation, TOF mass spectrometry). Further details: key: 0: No observed x-linking; +: 0 < x ≤ 20; ++: 20 < x ≤ 40; +++: 40 < x ≤ 100. The note with it: percent covalently modified K-Ras by MS, room temperature, typical compound conc. 2, 10, 25 μM, endpoints 1 and 24 h. The method in brief:
(§1)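 5 μM protein (final, from 50 μM) in HEPES/NaCl/MgCl2 buffer pH 7.4 with compound typically at 2, 10 and 25 μM, room temperature, 1 and 24 h endpoints; formic acid quench. Intact-protein LC–TOF MS; percent modification is covalent adduct peak height over total K-Ras peak height.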

In assay [2] the target is T2, GDP-loaded K-Ras (1-169) C51S, C80L, C118S (Homo sapiens, UniProt P01116, C118S/C51S/C80L).
T2 construct: GDP-loaded K-Ras (1-169) C51S, C80L, C118S
The assay is described as follows: K-Ras WT (GDP) cross-linking assay (conjugate formation, TOF mass spectrometry). More on the design: key: 0: No observed x-linking; +: 0 < x ≤ 20; ++: 20 < x ≤ 40; +++: 40 < x ≤ 100. To be noted: percent covalently modified K-Ras by MS, room temperature, typical compound conc. 2, 10, 25 μM, endpoints 1 and 24 h. The method in brief:
as §1

The target of the next assay is K-Ras G12S (Homo sapiens, UniProt P01116, G12S). The assay is described as follows: K-Ras G12S cross-linking assay (comparable procedure, conjugate formation, TOF mass spectrometry). More on the design: key: 0: No observed x-linking. An outline of the steps: as §1
Where [3] appears, read: Table 5, percent covalently modified K-Ras by MS.
The mark [4] stands for this setting: Table 4, percent covalently modified K-Ras by MS.

On to `Cc1cccc2cccc(N3CCc4c(nc(OC[C@@H]5CCCN5C)nc4N4CCC(N=C=NCCc5cccs5)CC4)C3)c12` [Example 95, N-(1-(7-(8-methylnaphthalen-1-yl)-2-(((S)-1-methylpyrrolidin-2-yl)methoxy)-5,6,7,8-tetrahydropyrido[3,4-d]pyrimidin-4-yl)piperidin-4-yl)-N-(2-(thiophen-2-yl)ethyl)methanediimine], for which the “G12D x-linking (%)” value in assay [1] (Table 5) is recorded as “+ (0 < x ≤ 20)”. Moreover, the “WT x-linking (%)” value in assay [2] (Table 5) is reported as “+ (0 < x ≤ 20)”. The “G12S x-linking (%)” value at K-Ras G12S (setting [3]) is “+ (0 < x ≤ 10)”.

As to `CC(=O)N1CC1C(=O)N(C)C1CCN(c2nc(OC[C@@H]3CCCN3C)nc3c2CCN(c2cccc4cccc(C)c24)C3)CC1` (stereo partly drawn) [Example 43, 1-acetyl-N-methyl-N-(1-(7-(8-methylnaphthalen-1-yl)-2-(((S)-1-methylpyrrolidin-2-yl)methoxy)-5,6,7,8-tetrahydropyrido[3,4-d]pyrimidin-4-yl)piperidin-4-yl)aziridine-2-carboxamide], the “G12D x-linking (%)” value in assay [1] (Table 4) is recorded as “+ (0 < x ≤ 20)”. In assay [2] (Table 4), the “WT x-linking (%)” value was “+ (0 < x ≤ 20)”. For the same molecule, the “G12S x-linking (%)” value on K-Ras G12S (setting [4]) is reported as “+ (0 < x ≤ 10)”.

As to `COCCCN=C=NC1CCN(c2nc(OC[C@@H]3CCCN3C)nc3c2CCN(c2cccc4cccc(C)c24)C3)CC1` [Example 25, N-(3-methoxypropyl)-N-(1-(7-(8-methylnaphthalen-1-yl)-2-(((S)-1-methylpyrrolidin-2-yl)methoxy)-5,6,7,8-tetrahydropyrido[3,4-d]pyrimidin-4-yl)piperidin-4-yl)methanediimine], in assay [1] (Table 4), the “G12D x-linking (%)” value is given as “+++ (40 < x ≤ 100)”. Moreover, the “WT x-linking (%)” value in assay [2] (Table 4) was “++ (20 < x ≤ 100)”. In addition, the “G12S x-linking (%)” value at K-Ras G12S (setting [4]) is on record as “++ (10 < x ≤ 100)”.

`CCCN=C=NC1CCN(c2nc(OC[C@@H]3CCCN3C)nc3c2CCN(c2cccc4cccc(C)c24)C3)CC1` [Example 22, N-(1-(7-(8-methylnaphthalen-1-yl)-2-(((S)-1-methylpyrrolidin-2-yl)methoxy)-5,6,7,8-tetrahydropyrido[3,4-d]pyrimidin-4-yl)piperidin-4-yl)-N-propylmethanediimine]: the “G12D x-linking (%)” value in assay [1] (Table 4) was “+++ (40 < x ≤ 100)”. Moreover, the “WT x-linking (%)” value in assay [2] (Table 4) is recorded as “++ (20 < x ≤ 100)”. Besides, the “G12S x-linking (%)” value on K-Ras G12S (setting [4]) is listed as “++ (10 < x ≤ 100)”.

For the molecule `CSCCCN=C=NC1CCN(c2nc(OC[C@@H]3CCCN3C)nc3c2CCN(c2cccc4cccc(C)c24)C3)CC1` [Example 93, N-(1-(7-(8-methylnaphthalen-1-yl)-2-(((S)-1-methylpyrrolidin-2-yl)methoxy)-5,6,7,8-tetrahydropyrido[3,4-d]pyrimidin-4-yl)piperidin-4-yl)-N-(3-(methylthio)propyl)methanediimine], the “G12D x-linking (%)” value in assay [1] (Table 5) is recorded as “++ (20 < x ≤ 40)”. Moreover, the “WT x-linking (%)” value in assay [2] (Table 5) is “+ (0 < x ≤ 20)”. Moreover, the “G12S x-linking (%)” value on K-Ras G12S (setting [3]) is listed as “+ (0 < x ≤ 10)”.

Turning to `COc1ccc(CN=C=NC2CCN(c3nc(OC[C@@H]4CCCN4C)nc4c3CCN(c3cccc5cccc(C)c35)C4)CC2)cc1` [Example 50, N-(4-methoxybenzyl)-N-(1-(7-(8-methylnaphthalen-1-yl)-2-(((S)-1-methylpyrrolidin-2-yl)methoxy)-5,6,7,8-tetrahydropyrido[3,4-d]pyrimidin-4-yl)piperidin-4-yl)methanediimine], the “G12D x-linking (%)” value in assay [1] (Table 4) was “+ (0 < x ≤ 20)”. Besides, the “WT x-linking (%)” value in assay [2] (Table 4) is recorded as “+ (0 < x ≤ 20)”. The “G12S x-linking (%)” value on K-Ras G12S (setting [4]) is “+ (0 < x ≤ 10)”.

`CN=C=NC1CCN(c2ncnc3c(F)c(-c4ccccc4F)c(Cl)cc23)CC1` [Example 4, N-(1-(6-chloro-8-fluoro-7-(2-fluorophenyl)quinazolin-4-yl)piperidin-4-yl)-N-methylmethanediimine]: the “G12D x-linking (%)” value in assay [1] (Table 4) is “+ (0 < x ≤ 20)”. Moreover, the “WT x-linking (%)” value in assay [2] (Table 4) was “+ (0 < x ≤ 20)”. In addition, the “G12S x-linking (%)” value at K-Ras G12S (setting [4]) was “++ (10 < x ≤ 100)”.

Consider `Cc1cccc2cccc(N3CCc4c(nc(OC[C@@H]5CCCN5C)nc4N4CCC(N=C=NCCCN(C)c5ccccn5)CC4)C3)c12` [Example 91, N-methyl-N-(3-((((1-(7-(8-methylnaphthalen-1-yl)-2-(((S)-1-methylpyrrolidin-2-yl)methoxy)-5,6,7,8-tetrahydropyrido[3,4-d]pyrimidin-4-yl)piperidin-4-yl)imino)methylene)amino)propyl)pyridin-2-amine], for which the “G12D x-linking (%)” value in assay [1] (Table 5) was “++ (20 < x ≤ 40)”. The “WT x-linking (%)” value in assay [2] (Table 5) is “+ (0 < x ≤ 20)”. The “G12S x-linking (%)” value on K-Ras G12S (setting [3]) is given as “+ (0 < x ≤ 10)”.

As to `Cc1cccc2cccc(N3CCc4c(nc(OC[C@@H]5CCCN5C)nc4N4CCN(C5=NCCO5)CC4)C3)c12` [Example 39], in assay [1] (Table 4), the “G12D x-linking (%)” value turned out to be 0. In addition, the “WT x-linking (%)” value in assay [2] (Table 4) is listed as 0. Further, the “G12S x-linking (%)” value at K-Ras G12S (setting [4]) came out at 0.

For the molecule `Cc1cccc2cccc(N3CCc4c(nc(OC[C@@H]5CCCN5C)nc4N4CCC(C(O)(O)C(F)(F)F)CC4)C3)c12` [Example 51, (S)-2,2,2-trifluoro-1-(1-(7-(8-methylnaphthalen-1-yl)-2-((1-methylpyrrolidin-2-yl)methoxy)-5,6,7,8-tetrahydropyrido[3,4-d]pyrimidin-4-yl)piperidin-4-yl)ethane-1,1-diol], the “G12D x-linking (%)” value in assay [1] (Table 4) was “+ (0 < x ≤ 20)”. Further, the “WT x-linking (%)” value in assay [2] (Table 4) was “+ (0 < x ≤ 20)”. Besides, the “G12S x-linking (%)” value on K-Ras G12S (setting [4]) was “+ (0 < x ≤ 10)”.

For `Fc1ccccc1-c1c(Cl)cc2c(NCCNC3=NCCO3)ncnc2c1F` [Example 15, N-(6-chloro-8-fluoro-7-(2-fluorophenyl)quinazolin-4-yl)-N^2-(4,5-dihydrooxazol-2-yl)ethane-1,2-diamine], in assay [1] (Table 4), the “G12D x-linking (%)” value was “+ (0 < x ≤ 20)”. Further, in assay [2] (Table 4), the “WT x-linking (%)” value is recorded as “+ (0 < x ≤ 20)”. For the same molecule, the “G12S x-linking (%)” value on K-Ras G12S (setting [4]) was “+ (0 < x ≤ 10)”.

Regarding `COCCN=C=NCC1CCN(c2nc(OC[C@@H]3CCCN3C)nc3c2CCN(c2cccc4cccc(C)c24)C3)CC1` [Example 77, N-(2-methoxyethyl)-N-((1-(7-(8-methylnaphthalen-1-yl)-2-(((S)-1-methylpyrrolidin-2-yl)methoxy)-5,6,7,8-tetrahydropyrido[3,4-d]pyrimidin-4-yl)piperidin-4-yl)methyl)methanediimine], the “G12D x-linking (%)” value in assay [1] (Table 5) was “+++ (40 < x ≤ 100)”. Further, the “WT x-linking (%)” value in assay [2] (Table 5) was “++ (20 < x ≤ 100)”. In addition, the “G12S x-linking (%)” value on K-Ras G12S (setting [3]) is “++ (10 < x ≤ 100)”.

Regarding `O=C(NCCCl)NC1CCN(c2ncnc3c(F)c(-c4ccccc4F)c(Cl)cc23)CC1` [Example 10, 1-(1-(6-chloro-8-fluoro-7-(2-fluorophenyl)quinazolin-4-yl)piperidin-4-yl)-3-(2-chloroethyl)urea], in assay [1] (Table 4), the “G12D x-linking (%)” value is “+ (0 < x ≤ 20)”. Besides, in assay [2] (Table 4), the “WT x-linking (%)” value is “+ (0 < x ≤ 20)”. Further, the “G12S x-linking (%)” value on K-Ras G12S (setting [4]) was “+ (0 < x ≤ 10)”.

In the case of `CCCN=C=NCCCN(C)c1nc(OC[C@@H]2CCCN2C)nc2c1CCN(c1cccc3cccc(C)c13)C2` [Example 30, N-methyl-7-(8-methylnaphthalen-1-yl)-2-(((S)-1-methylpyrrolidin-2-yl)methoxy)-N-(3-(((propylimino)methylene)amino)propyl)-5,6,7,8-tetrahydropyrido[3,4-d]pyrimidin-4-amine], the “G12D x-linking (%)” value in assay [1] (Table 4) is on record as “+++ (40 < x ≤ 100)”. For the same molecule, in assay [2] (Table 4), the “WT x-linking (%)” value is given as “++ (20 < x ≤ 100)”. For the same molecule, the “G12S x-linking (%)” value at K-Ras G12S (setting [4]) is reported as “++ (10 < x ≤ 100)”.

With `COc1ccc(CN=C=NCCN(C)c2nc(OC[C@@H]3CCCN3C)nc3c2CCN(c2cccc4cccc(C)c24)C3)cc1` [Example 29, N-(2-((((4-methoxybenzyl)imino)methylene)amino)ethyl)-N-methyl-7-(8-methylnaphthalen-1-yl)-2-(((S)-1-methylpyrrolidin-2-yl)methoxy)-5,6,7,8-tetrahydropyrido[3,4-d]pyrimidin-4-amine], the “G12D x-linking (%)” value in assay [1] (Table 4) was “+++ (40 < x ≤ 100)”. Besides, the “WT x-linking (%)” value in assay [2] (Table 4) was “++ (20 < x ≤ 100)”. On K-Ras G12S (setting [4]), the “G12S x-linking (%)” value is given as “++ (10 < x ≤ 100)”.

Consider `COc1ccc(CN=C=NC2CCN(c3nc(OC[C@@H]4CCCN4C)nc4c3CCN(c3cccc5cccc(C)c35)C4)CC2)c(OC)c1` [Example 82, N-(2,4-dimethoxybenzyl)-N-(1-(7-(8-methylnaphthalen-1-yl)-2-(((S)-1-methylpyrrolidin-2-yl)methoxy)-5,6,7,8-tetrahydropyrido[3,4-d]pyrimidin-4-yl)piperidin-4-yl)methanediimine], for which the “G12D x-linking (%)” value in assay [1] (Table 5) is given as “+ (0 < x ≤ 20)”. Further, in assay [2] (Table 5), the “WT x-linking (%)” value is on record as “+ (0 < x ≤ 20)”. Further, the “G12S x-linking (%)” value at K-Ras G12S (setting [3]) is on record as “+ (0 < x ≤ 10)”.

In the case of `CCCN=C=NCC1CCN(c2nc(=O)n(-c3c(C)ccnc3C(C)C)c3nc(-c4ccccc4F)c(F)cc23)CC1` [Example 71, 6-fluoro-7-(2-fluorophenyl)-1-(2-isopropyl-4-methylpyridin-3-yl)-4-(4-((((propylimino)methylene)amino)methyl)piperidin-1-yl)pyrido[2,3-d]pyrimidin-2(1H)-one], the “G12D x-linking (%)” value in assay [1] (Table 5) is reported as “++ (20 < x ≤ 40)”. In addition, the “WT x-linking (%)” value in assay [2] (Table 5) is “++ (20 < x ≤ 100)”. In addition, the “G12S x-linking (%)” value on K-Ras G12S (setting [3]) is listed as “++ (10 < x ≤ 100)”.
